The source of these data is patent US12295937B2, “Psychoactive medicines and their use for treating psychiatric and neurological conditions and disorders” (Transcend Therapeutics, Inc., priority 2021, dated 2025).

The structures appear in SMILES notation. pEC50: −log10 of the molar value.

Experiment [1] can be described thus: Mouse fear extinction paradigm (PTSD model). Format: in vivo. To be noted: 30 mg/kg IP 30 min before extinction training; day 3. From the text: (FIG. 9A) Schematic of experimental design. A single CS-US (tone-shock) pairing on day 1 was followed by 6 CS presentations in a novel context (context B). […] On day 3, the time spent freezing to the CS was quantified. […] (FIG. 9C) No locomotor changes were observed on day 3 (t(26)=1.073, p>0.05). Data are mcan+/−SEM.
FIGS. 10A-10B: MBDB improves fear extinction in a PTSD mouse model. A single CS-US (tone-shock) pairing on day 1 was followed by 6 conditioned stimulus (CS) presentations in a novel context (context B). MBDB or saline vehicle was injected 30 min prior to extinction training on day 2. The time spent freezing to the CS was quantified on day 2. […] Data are mean+/−SEM. N=10 for MBDB group (5 mg/kg, IP) and N=16 for saline control group. **p<0.01 vs. vehicle control group.
Effective PTSD treatments facilitate the disassociation between a traumatic memory and the patient's fear response, making cues for the traumatic memory evoke less of a fear response. This is modeled in the mouse fear extinction paradigm (see FIG. 9A) which takes place over 3 days. […] On day 3 (extinction recall), the mice are “asked” if that tone (CS) still elicits a fearful response, as measured by the time spent freezing when the tone is presented. […]

The target in another experiment is DAT (Rattus norvegicus, UniProt P23977). Kind of experiment: [3H]DA release from rat brain synaptosomes. It counts as biochemical. To be noted: rat brain synaptosomes; read-out: Neurotransmitter release: EC50. The arrangement: from tissue; synaptosomes for uptake and release. How it is done: Test compounds and synaptosomes were prepared as described for uptake inhibition assays. Synaptosomes treated with [^3H]5-HT, [^3H]DA or [^3H]NE were loaded onto filter chambers containing GF/C filters and placed in a superfusion system. Oxygenated Krebs buffer was perfused through the chambers at a rate of 1.5 mL/minute at 35° C. using either an 8-channel or a 12-channel peristaltic pump. Trapped air bubbles were removed from the filters prior to collecting fractions to ensure an even flow over the synaptosomal bed. After a superfusion period of 45 minutes, 2 basal fractions were collected followed by 6 fractions following the addition of the test drug. […] Scintillation cocktail was added, and the filters counted to determine residual radioactivity. Drug-evoked release of neurotransmitter was calculated by subtracting the average of the two basal fractions (collected prior to the drug addition), from the four fractions collected in the presence of drug. The drug-evoked release was then expressed as a percentage of the basal release. Potassium-evoked release was calculated by subtracting the average of two fractions collected prior to the addition of high KCl buffer from that in the two fractions following addition of high KCl buffer. Potassium-stimulated release was calculated as a percentage of basal release. […]
Chain of DAT (P23977 whole entry, the tested form may be a part): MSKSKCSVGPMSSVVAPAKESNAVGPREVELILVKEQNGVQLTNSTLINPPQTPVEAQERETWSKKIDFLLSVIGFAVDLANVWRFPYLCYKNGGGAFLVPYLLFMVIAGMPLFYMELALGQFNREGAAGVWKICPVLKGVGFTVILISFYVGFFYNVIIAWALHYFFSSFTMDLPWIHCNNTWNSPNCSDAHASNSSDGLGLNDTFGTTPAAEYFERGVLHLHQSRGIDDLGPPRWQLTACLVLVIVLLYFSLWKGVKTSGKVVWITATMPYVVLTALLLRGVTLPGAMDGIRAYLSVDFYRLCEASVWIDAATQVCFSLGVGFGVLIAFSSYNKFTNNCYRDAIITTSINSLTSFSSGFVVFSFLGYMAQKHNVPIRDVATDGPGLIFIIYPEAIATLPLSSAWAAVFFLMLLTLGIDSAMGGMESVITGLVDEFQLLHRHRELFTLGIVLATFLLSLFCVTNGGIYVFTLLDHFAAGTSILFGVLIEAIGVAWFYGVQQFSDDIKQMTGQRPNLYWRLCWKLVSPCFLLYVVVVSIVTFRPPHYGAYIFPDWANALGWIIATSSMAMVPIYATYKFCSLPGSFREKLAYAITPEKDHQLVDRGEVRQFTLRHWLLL

For the compound `CNC(C)C(=O)c1ccc2c(c1)OCO2` (centres unmarked) [Methylone, 3,4-methylenedioxy-N-methylcathinone], the “Enhancement of fear extinction recall vs. saline controls” value in experiment [1] was about 60%. Moreover, the pEC50 at DAT is 5.32.
